Consider 25 compounds from patent EP3417074B1, “ANALYTICAL METHODS AND ARRAYS FOR USE IN THE SAME” (SenzaGen AB, priority 2016, dated 2017).

In one series the test system is human skin. To be noted: cited from earlier work.
Series [1] concerns MUTZ-3 cells.
Series [2] deals with MUTZ-3 cells. The conditions noted are these: for SVM DV: human.
Source text: (§1) The SVM model had been developed for binary classifications (sensitizer versus non-sensitizer).
Series [3] has as its system MUTZ-3 cells. The source holds these as a separate data set.
The conditions of series [4]: cited from earlier work; for binary class: Table 4; for binary class (HP*): Table 1, based on [41] where available, HP 1-4=S, 5-6=NS, otherwise according to CLP.
In series [5] the test system is MUTZ-3 cells. Kind of series: GARD random forest model for prediction of CLP categories (52 transcripts, Example A). The conditions noted are these: for predicted CLP: Suppl. Table 1, separate replicates in the test set; for GARD predicted CLP: Table 6, independent test set, majority voting across replicates; for CLP category predicted by the random forest model: test set, majority votes.

Series [6] deals with MUTZ-3 cells. Kind of series: GARD binary classification (SVM on GARD prediction signature, 200 transcripts). To be noted: Table 1; sensitizer if median calibrated SVM DV of replicates > 0.
Source text: as §1
For series [7], the system named is MUTZ-3 cells. Kind of series: Cytotoxicity / viability by flow cytometry (propidium iodide). To be noted: Table 1, 24 hours exposure. (In general: Flow cytometry measures light scatter and fluorescence of single cells or particles in a stream.)

Several values for one entry are separate records, joined by “and”; a condition that tells them apart may be missing. Equal values may be shown once. Entries after “also recorded” stand apart in the source; their conditions may differ. Read-outs that look alike come from different tables or passages of the source.

Take `CC=Cc1ccc(OC)cc1` [anethole]: in the series on human skin, the HP is given as 5 and the “Human potency [41]” value was 5. Moreover, in the series on MUTZ-3 cells [1] (human, 24 h), the “GARD predicted CLP” value is given as 1B and the “predicted CLP” value is recorded as 1B.

`Nc1ccccc1` [aniline]: in the series on human skin, the HP is reported as 4. Besides, the “binary classification according to the established GARD model” value in the series on MUTZ-3 cells [2] is “misclassified”. The cytotox result in the series on MUTZ-3 cells [3] was “no”.

With `O=C(O)c1ccccc1` [benzoic acid], the binary class entry in series [4] was “non-sens”. In the series with MUTZ-3 cells [5], the “predicted CLP” value is reported as “no cat” and the “GARD predicted CLP” value is listed as “no cat”. The cytotox result in the series on MUTZ-3 cells [3] is listed as “no”.

As for `O=C(OCc1ccccc1)c1ccccc1` [benzyl benzoate], in the series on MUTZ-3 cells [5], the “predicted CLP” value is on record as 1B and the “GARD predicted CLP” value is 1B. The GARD binary prediction result with MUTZ-3 cells [6] was “S”. For the same compound, the cytotox entry in the series on MUTZ-3 cells [7] is on record as “yes”.

Consider `CC(C)(c1ccc(OCC2CO2)cc1)c1ccc(OCC2CO2)cc1` (centres unmarked) [bisphenol A-diglycidyl ether], for which, in the series with MUTZ-3 cells [5], the “predicted CLP” value is 1A and the “GARD predicted CLP” value is 1A. Besides, in the series on human skin, the HP was 3 and the “Human potency [41]” value is given as 3. In addition, in the series with MUTZ-3 cells [6], the GARD binary prediction result was “S”. Moreover, the cytotox entry with MUTZ-3 cells [3] is reported as “yes”.

With `CCCCOCC1CO1` (centres unmarked) [butyl glycidyl ether], in the series with human skin, the HP is given as 3, the “Human potency [41]” value is 3 and the human potency category is recorded as 3. Besides, in the series on MUTZ-3 cells [1] (human, 24 h), the “CLP category predicted by the random forest model” value (“CLP category predicted” below) is given as 1A and the “GARD predicted CLP” value was 1A. For the same compound, in the series with MUTZ-3 cells [2], the “binary classification according to the established GARD model” value was “misclassified”. In addition, the cytotox result with MUTZ-3 cells [3] is given as “yes”.

For the compound `CN(C)CCCN1c2ccccc2Sc2ccc(Cl)cc21` [chlorpromazine], in series [4], the “binary class (HP*)” value is reported as “S” and the binary class entry is on record as “sens”. Further, the HP with human skin (Table 4) was 3. The GARD binary prediction result in the series on MUTZ-3 cells [6] is listed as “S”. Moreover, the cytotox result in the series with MUTZ-3 cells [7] is “yes”.

On to `CC(C)=CCCC(C)=CC=O` [citral], for which, in series [4], the “binary class (HP*)” value was “S” and the binary class entry is on record as “sens”. The HP in the series with human skin is 3. Further, in the series with MUTZ-3 cells [6], the GARD binary prediction entry is on record as “S”. The cytotox entry in the series with MUTZ-3 cells [7] is “yes”.

As for `CC(C)=CCCC(C)CCO` (centres unmarked) [citronellol], the binary class result in series [4] is recorded as “sens”. In addition, the HP with human skin (Table 4) is recorded as 5. Also, the GARD binary prediction result in the series with MUTZ-3 cells [6] is recorded as “S”. The cytotox result in the series with MUTZ-3 cells [7] is listed as “no”.

For the compound `Clc1nc(Cl)nc(Cl)n1` [cyanuric chloride], in series [4], the “binary class (HP*)” value is on record as “S” and the binary class entry was “sens”. Also, in the series with MUTZ-3 cells [5], the “predicted CLP” value is 1B and no cat (2×); the “GARD predicted CLP” value is reported as “no cat”; the “CLP category predicted” value is on record as “no cat; also recorded: no category”. Moreover, the cytotox entry in the series with MUTZ-3 cells [7] was “yes”.

`CCOc1cc(C=O)ccc1O` [ethyl vanillin]: in the series on MUTZ-3 cells [1], the “GARD predicted CLP” value is “no cat” and the “predicted CLP” value is on record as “no cat”. Moreover, in the series with MUTZ-3 cells [1] (human, 24 h), the “predicted CLP” value is 1B.

For the compound `C=CCc1ccc(O)c(OC)c1` [eugenol], in the series with human skin, the HP is on record as 3 and the Human potency is reported as 3. Besides, the “SVM DV” value in the series on MUTZ-3 cells [2] (24 h) was 1,02.

With `C=O` [formaldehyde], in the series with human skin, the HP is recorded as 2 and the Human potency is given as 2. The “SVM DV” value in the series with MUTZ-3 cells [2] is 2,32.

As to `O=CCCCC=O` [glutaraldehyde], in series [4], the “binary class (HP*)” value was “S” and the binary class result was “sens”. Further, in the series on MUTZ-3 cells [5], the “predicted CLP” value is listed as 1A and the “GARD predicted CLP” value was 1A. Moreover, in the series on human skin (Table 4), the HP was 2. Further, the “Human potency [41]” value with human skin (Table 6, test set) is 2. The GARD binary prediction result in the series with MUTZ-3 cells [6] is reported as “S”. For the same compound, the cytotox result in the series on MUTZ-3 cells [7] was “yes”.

Take `CCCCCCOC(=O)c1ccccc1O` [hexyl salicylate]: in series [4], the “binary class (HP*)” value is on record as “S” and the binary class entry was “sens”. Also, the HP in the series with human skin is 4. The GARD binary prediction entry in the series with MUTZ-3 cells [6] is reported as “S”. In addition, in the series with MUTZ-3 cells [7], the cytotox entry is on record as “yes”.

`NC[C@H]1O[C@H](O[C@H]2[C@H](O)[C@@H](O[C@H]3O[C@H](CO)[C@@H](O)[C@H](N)[C@H]3O)[C@H](N)C[C@@H]2N)[C@H](O)[C@@H](O)[C@@H]1O` [kanamycin A]: the binary class entry in series [4] is “non-sens”. The cytotox entry in the series with MUTZ-3 cells [3] is listed as “no”.

Turning to `CC(C=O)Cc1ccc(C(C)(C)C)cc1` (centres unmarked) [lilial], in series [4], the “binary class (HP*)” value is on record as “S” and the binary class result is “sens”. For the same compound, in the series on human skin, the HP is 4. Moreover, the GARD binary prediction entry in the series on MUTZ-3 cells [2] was “S”. For the same compound, the cytotox result in the series with MUTZ-3 cells [3] is “yes”.

For `C=CC(C)(O)CCC=C(C)C` (centres unmarked) [linalool], in series [4], the “binary class (HP*)” value is “S” and the binary class result is reported as “sens”. Besides, in the series on MUTZ-3 cells [5], the “predicted CLP” value was “no cat and 1B (2×)”; the “GARD predicted CLP” value is 1B. For the same compound, in the series on human skin (Table 4), the HP is on record as 4. Also, in the series with human skin (Table 6, test set), the “Human potency [41]” value is 4. For the same compound, the cytotox result in the series on MUTZ-3 cells [7] is listed as “no”.

Regarding `CC(C)(O)CCCC1=CCC(C=O)CC1` (centres unmarked) [lyral], in series [4], the “binary class (HP*)” value is listed as “S” and the binary class result is “sens”. Besides, in the series with MUTZ-3 cells [5], the “predicted CLP” value is 1A (2×) and 1B; the “GARD predicted CLP” value is 1A; the “CLP category predicted” value was 1A. In addition, in the series on human skin (Basketter et al. [41]), the human potency category was 2. The HP in the series with human skin (Table 4) is listed as 2. Further, the “Human potency [41]” value in the series on human skin (Table 6, test set) is 2. Besides, the GARD binary prediction entry in the series with MUTZ-3 cells [6] is on record as “S”. In addition, the cytotox result in the series with MUTZ-3 cells [7] is “yes”.

Consider `CCCCCC#CC(=O)OC` [methyl heptine carbonate], for which, in series [4], the “binary class (HP*)” value is reported as “S” and the binary class entry was “sens”. The HP with human skin (Table 4) is 2. In addition, in the series on MUTZ-3 cells [6], the GARD binary prediction result is “S”. Also, the cytotox entry with MUTZ-3 cells [7] is on record as “yes”.

With `O=C1C=CC(=O)C=C1` [p-benzoquinone], in the series on MUTZ-3 cells [5], the “predicted CLP” value is reported as 1A and the “GARD predicted CLP” value was 1A. For the same compound, the GARD binary prediction entry with MUTZ-3 cells [2] is “S”. The cytotox result in the series on MUTZ-3 cells [7] is on record as “yes”.

Regarding `Oc1ccccc1` [phenol], in the series with human skin, the HP was 6 and the Human potency is reported as 6. Further, the “SVM DV” value in the series with MUTZ-3 cells [2] was -1,08.

`CCCOC(=O)c1cc(O)c(O)c(O)c1` [propyl gallate]: in series [4], the “binary class (HP*)” value was “S” and the binary class entry was “sens”. Besides, in the series on MUTZ-3 cells [5], the “predicted CLP” value was 1A and the “GARD predicted CLP” value is listed as 1A. Besides, the HP with human skin (Table 4) is 2. The “Human potency [41]” value with human skin (Table 6, test set) is reported as 2. Besides, the GARD binary prediction result in the series on MUTZ-3 cells [6] is “S”. Besides, the cytotox result with MUTZ-3 cells [7] is recorded as “yes”.

For `c1ccncc1` [pyridine], the HP with human skin is 5. The cytotox result in the series on MUTZ-3 cells [3] is given as “no”.

For `CCCCCCCCCCCCOS(=O)(=O)[O-].[Na+]` [sodium dodecyl sulfate], in the series with human skin, the HP is given as 6 and the Human potency is listed as 6. The “SVM DV” value in the series with MUTZ-3 cells [2] is reported as -1,52.
